Data as given in patent publication US20230279036A1, “Salts of Remdesivir” (Apotex Inc., priority 2020, published 2023).

Assay: PXRD study of crystalline form stability in a 40° C./75% RH stability chamber
Format: physicochemical
Details: capped and uncapped samples, at least one year
Experimental: Remdesivir napsylate Form APO-I can be characterized by a PXRD diffractogram comprising, among other peaks, characteristic peaks, expressed in degrees 2θ (±0.2°), at 5.1°, 6.5° and 13.1°. Preferably, the PXRD diffractogram further comprises at least three peaks, expressed in degrees 2θ (±0.2°), selected from the group consisting of 4.5°, 9.0°, 10.0°, 11.5°, 13.6°, 15.3°, 16.4°, 17.2°, 20.2° and 24.3°. More preferably, the PXRD diffractogram further comprises peaks, expressed in degrees 2θ (±0.2°), at 4.5°, 9.0°, 10.0°, 11.5°, 13.6°, 15.3°, 16.4°, 17.2°, 20.2° and 24.3°.
Remdesivir tosylate Form APO-I can be characterized by a PXRD diffractogram comprising, among other peaks, characteristic peaks, expressed in degrees […] (±0.2°), at 5.5°, 7.7° and 13.1°. Preferably, the PXRD diffractogram further comprises at least three peaks, expressed in degrees 2θ (±0.2°), selected from the group consisting of 4.5°, 6.5°, 9.1°, 9.8°, 16.0°, 16.6°, 17.1°, 17.5°, 18.4° and 20.0°. More preferably, the PXRD diffractogram further comprises peaks, expressed in degrees 2θ (±0.2°), at 4.5°, 6.5°, 9.1°, 9.8°, 16.0°, 16.6°, 17.1°, 17.5°, 18.4° and 20.0°.
The PXRD diffractogram was recorded on a Bruker D8 Discover powder X-ray diffractometer (Bruker-AXS, Karlsruhe, Germany). […] Raw data was evaluated using the program EVA (Bruker-AXS, Karlsruhe, Germany).

SMILES | change in the crystalline form by PXRD
CCC(CC)COC(=O)C(C)NP(=O)(OCC1OC(C#N)(c2ccc3c(N)ncnn23)C(O)C1O)Oc1ccccc1.O=S(=O)(O)c1ccc2ccccc2c1 (centres unmarked) [remdesivir napsylate Form APO-I, remdesivir naphthalene-2-sulfonate Form APO-I] | no change in the crystalline form occurred
CCC(CC)COC(=O)[C@H](C)N[P@](=O)(OC[C@H]1O[C@@](C#N)(c2ccc3c(N)ncnn23)[C@H](O)[C@@H]1O)Oc1ccccc1.Cc1ccc(S(=O)(=O)O)cc1 [remdesivir tosylate Form APO-1, remdesivir tosylate Form APO-I] | no change in the crystalline form occurred
